From ChEMBL document CHEMBL3085671, “5,6-Dihydro-5-aza-2'-deoxycytidine potentiates the anti-HIV-1 activity of ribonucleotide reductase inhibitors” (Bioorg Med Chem, 2013)
pEC50: −log10 of the molar value. The source made the active and inactive calls. No cut-off for these calls is given here.

Legend:
[1] = tested on: Human immunodeficiency virus 1; assay: Antiviral activity against HIV1 infected in human U373-MAGI cells assessed as increase in mutant frequency incubated for 2 hrs prior to viral infection followed by compound washout after 24 hrs measured 72 hrs post-infection by flow cytometry; type: functional, organism-based
[2] = tested on: Human immunodeficiency virus 1; assay: Antiviral activity against HIV1 infected in human U373-MAGI cells incubated for 2 hrs prior to viral infection followed by compound washout after 24 hrs measured 72 hrs post-infection by flow cytometry; type: functional, organism-based; conditions: Human immunodeficiency virus 1, U373-MAGI
[3] = Selectivity index, ratio of CC50 for human U373-MAGI cells to EC50 for HIV1 infected in human U373-MAGI cells; type: toxicity, cell-based; conditions: read-out: Ratio CC50/EC50
[4] = Cytotoxicity against human U373-MAGI cells by CellTitre-Glo assay; type: cell-based
[5] = tested on: Human immunodeficiency virus 1; assay: Antiviral activity against HIV1 infected in human U373-MAGI cells assessed as T to C mutation at 50 uM (reference value: 18%); type: functional
[6] = tested on: Human immunodeficiency virus 1; assay: Antiviral activity against HIV1 infected in human U373-MAGI cells assessed as C to T mutation at 50 uM (reference value: 13%); type: functional
[7] = tested on: Human immunodeficiency virus 1; assay: Antiviral activity against HIV1 infected in human U373-MAGI cells assessed as A to G mutation at 50 uM (reference value: 22%); type: functional
[8] = tested on: Human immunodeficiency virus 1; assay: Antiviral activity against HIV1 infected in human U373-MAGI cells assessed as G to A mutation at 50 uM (reference value: 27%); type: functional
[9] = tested on: Human immunodeficiency virus 1; assay: Antiviral activity against HIV1 infected in human U373-MAGI cells assessed as induction of mutations at 50 uM (reference value: 18%); type: functional
[10] = tested on: Human immunodeficiency virus 1; assay: Antiviral activity against HIV1 infected in human U373-MAGI cells assessed as A to G mutation at 20 nM (reference value: 22%); type: functional
[11] = tested on: Human immunodeficiency virus 1; assay: Antiviral activity against HIV1 infected in human U373-MAGI cells assessed as C to T mutation at 20 nM (reference value: 13%); type: functional
[12] = tested on: Human immunodeficiency virus 1; assay: Antiviral activity against HIV1 infected in human U373-MAGI cells assessed as G to A mutation at 20 nM (reference value: 27%); type: functional
[13] = tested on: Human immunodeficiency virus 1; assay: Antiviral activity against HIV1 infected in human U373-MAGI cells assessed as T to C mutation at 20 nM (reference value: 18%); type: functional
[14] = tested on: Human immunodeficiency virus 1; assay: Antiviral activity against HIV1 infected in human U373-MAGI cells assessed as induction of mutations at 20 nM (reference value: 18%); type: functional
[15] = tested on: Human immunodeficiency virus 1; assay: Antiviral activity against HIV1 infected in human U373-MAGI cells assessed as G to C mutation at 200 uM; type: functional
[16] = tested on: Human immunodeficiency virus 1; assay: (§1) Inhibition of gemcitabine-induced antiviral activity against HIV1 infected in human U373-MAGI cells assessed as increase in mutant frequency incubated for 2 hrs prior to viral infection followed by compound washout after 24 hrs measured 72 hrs post-infection by flow cytometry relative to gemcitabine; type: functional, organism-based
[17] = tested on: Human immunodeficiency virus 1; assay: Potentiation of gemcitabine-induced antiviral activity against HIV1 infected in human U373-MAGI cells assessed as induction of mutations at 200 uM (reference value: 18%); type: functional
[18] = tested on: Human immunodeficiency virus 1; assay: Potentiation of resveratrol-induced antiviral activity against HIV1 infected in human U373-MAGI cells assessed as A to G mutation at 200 uM (reference value: 22%); type: functional
[19] = tested on: Human immunodeficiency virus 1; assay: Inhibition of gemcitabine-induced antiviral activity against HIV1 infected in human U373-MAGI cells at 100 to 200 uM incubated for 2 hrs prior to viral infection followed by compound washout after 24 hrs measured 72 hrs post-infection by flow cytometry; type: functional, organism-based
[20] = tested on: Human immunodeficiency virus 1; assay: Antiviral activity against HIV1 infected in human U373-MAGI cells assessed as A to G mutation at 200 uM (reference value: 22%); type: functional
[21] = tested on: Human immunodeficiency virus 1; assay: (§2) Antiviral activity against HIV1 infected in human U373-MAGI cells assessed as increase in mutant frequency at 5 to 200 uM incubated for 2 hrs prior to viral infection followed by compound washout after 24 hrs measured 72 hrs post-infection by flow cytometry; type: functional
[22] = tested on: Human immunodeficiency virus 1; assay: as §1, with “Potentiation of” for “Inhibition of”, “frequency at 25 uM” for “frequency”, “to control” for “to gemcitabine”; type: functional
[23] = tested on: Human immunodeficiency virus 1; assay: Antiviral activity against HIV1 infected in human U373-MAGI cells at 5 to 200 uM incubated for 2 hrs prior to viral infection followed by compound washout after 24 hrs measured 72 hrs post-infection by flow cytometry; type: functional, organism-based
[24] = tested on: Human immunodeficiency virus 1; assay: Antiviral activity against HIV1 assessed as viral infection; type: functional, organism-based
[25] = tested on: Human immunodeficiency virus 1; assay: Potentiation of resveratrol-induced antiviral activity against HIV1 infected in human U373-MAGI cells assessed as G to C mutation at 200 uM; type: functional
[26] = tested on: Human immunodeficiency virus 1; assay: Potentiation of resveratrol-induced antiviral activity against HIV1 infected in human U373-MAGI cells incubated for 2 hrs prior to viral infection followed by compound washout after 24 hrs measured 72 hrs post-infection by flow cytometry; type: functional, organism-based
[27] = tested on: Human immunodeficiency virus 1; assay: Antiviral activity against HIV1 infected in human U373-MAGI cells assessed as C to T mutation at 200 uM (reference value: 13%); type: functional
[28] = tested on: Human immunodeficiency virus 1; assay: as §2, with “Potentiation of resveratrol-induced antiviral” for “Antiviral”, “cytometry relative to control” for “cytometry”; type: functional
[29] = tested on: Human immunodeficiency virus 1; assay: Potentiation of gemcitabine-induced antiviral activity against HIV1 infected in human U373-MAGI cells assessed as T to C mutation at 5 uM (reference value: 18%); type: functional
[30] = tested on: Human immunodeficiency virus 1; assay: Potentiation of gemcitabine-induced antiviral activity against HIV1 infected in human U373-MAGI cells assessed as A to G mutation at 5 uM (reference value: 22%); type: functional
[31] = tested on: Human immunodeficiency virus 1; assay: Potentiation of resveratrol-induced antiviral activity against HIV1 infected in human U373-MAGI cells assessed as T to C mutation at 200 uM (reference value: 18%); type: functional
[32] = tested on: Human immunodeficiency virus 1; assay: Potentiation of resveratrol-induced antiviral activity against HIV1 infected in human U373-MAGI cells G to A mutation at 200 uM (reference value: 27%); type: functional
[33] = tested on: Human immunodeficiency virus 1; assay: Potentiation of gemcitabine-induced antiviral activity against HIV1 infected in human U373-MAGI cells at 5 uM incubated for 2 hrs prior to viral infection followed by compound washout after 24 hrs measured 72 hrs post-infection by flow cytometry; type: functional, organism-based; conditions: Human immunodeficiency virus 1, U373-MAGI
[34] = Cytotoxicity against human U373-MAGI cells up to 200 uM by CellTitre-Glo assay; type: cell-based
[35] = tested on: Human immunodeficiency virus 1; assay: Antiviral activity against HIV1 infected in human U373-MAGI cells assessed as G to A mutation at 200 uM (reference value: 27%); type: functional
[36] = tested on: Human immunodeficiency virus 1; assay: Potentiation of gemcitabine-induced antiviral activity against HIV1 infected in human U373-MAGI cells assessed as C to T mutation at 5 uM (reference value: 13%); type: functional
[37] = tested on: Human immunodeficiency virus 1; assay: as §2, with “Potentiation of deferoxamine-induced antiviral” for “Antiviral”, “cytometry relative to control” for “cytometry”; type: functional
[38] = tested on: Human immunodeficiency virus 1; assay: Potentiation of gemcitabine-induced antiviral activity against HIV1 infected in human U373-MAGI cells G to A mutation at 5 uM (reference value: 27%); type: functional
[39] = tested on: Human immunodeficiency virus 1; assay: Potentiation of gemcitabine-induced antiviral activity against HIV1 infected in human U373-MAGI cells assessed as G to C mutation at 5 uM; type: functional
[40] = tested on: Human immunodeficiency virus 1; assay: Potentiation of gemcitabine-induced antiviral activity against HIV1 infected in human U373-MAGI cells assessed as induction of mutations at 5 uM (reference value: 18%); type: functional
[41] = tested on: Human immunodeficiency virus 1; assay: Potentiation of deferoxamine-induced antiviral activity against HIV1 infected in human U373-MAGI cells at 200 uM incubated for 2 hrs prior to viral infection followed by compound washout after 24 hrs measured 72 hrs post-infection by flow cytometry; type: functional, organism-based; conditions: Human immunodeficiency virus 1, U373-MAGI
[42] = tested on: Human immunodeficiency virus 1; assay: Antiviral activity against HIV1 infected in human U373-MAGI cells assessed as induction of mutations at 200 uM (reference value: 18%); type: functional
[43] = tested on: Human immunodeficiency virus 1; assay: Antiviral activity against HIV1 infected in human U373-MAGI cells assessed as T to C mutation at 200 uM (reference value: 18%); type: functional
[44] = tested on: Human immunodeficiency virus 1; assay: Potentiation of gemcitabine-induced antiviral activity against HIV1 infected in human U373-MAGI cells at 5 to 50 uM incubated for 2 hrs prior to viral infection followed by compound washout after 24 hrs measured 72 hrs post-infection by flow cytometry; type: functional, organism-based
[45] = tested on: Human immunodeficiency virus 1; assay: Potentiation of resveratrol-induced antiviral activity against HIV1 infected in human U373-MAGI cells at 200 uM incubated for 2 hrs prior to viral infection followed by compound washout after 24 hrs measured 72 hrs post-infection by flow cytometry; type: functional, organism-based; conditions: Human immunodeficiency virus 1, U373-MAGI
[46] = tested on: Human immunodeficiency virus 1; assay: Potentiation of resveratrol-induced antiviral activity against HIV1 infected in human U373-MAGI cells assessed as C to T mutation at 200 uM (reference value: 13%); type: functional
[47] = tested on: Human immunodeficiency virus 1; assay: Potentiation of deferoxamine-induced antiviral activity against HIV1 infected in human U373-MAGI cells incubated for 2 hrs prior to viral infection followed by compound washout after 24 hrs measured 72 hrs post-infection by flow cytometry; type: functional, organism-based

CC(=O)N(O)CCCCCNC(=O)CCC(=O)N(O)CCCCCNC(=O)CCC(=O)N(O)CCCCCN [DEFEROXAMINE]
Activity [1]: Dose-dependent effect
pEC50 [2]: 3.42
selectivity ratio [3]: > 1
CC50 ([4]; u373-magi): > 400 µM

Oc1ccc(/C=C/c2cc(O)cc(O)c2)cc1 [RESVERATROL]
Activity [1]: Dose-dependent effect
Activity [5]: 16%
pEC50 [2]: 4.00
Activity [6]: 4%
Activity [7]: 38%
Activity [8]: 18%
Activity [9]: 22%
CC50 ([4]; U373-MAGI cells): > 400 µM

Nc1ccn([C@@H]2O[C@H](CO)[C@@H](O)C2(F)F)c(=O)n1 [GEMCITABINE]
Activity [1]: Dose-dependent effect
Activity [10]: 24%
Activity [11]: 13%
Activity [12]: 13%
Activity [13]: 24%
Activity [14]: 24%
CC50 ([4]; u373-magi): 62 µM

NC1=NC(=O)N([C@H]2C[C@H](O)[C@@H](CO)O2)CN1 [KP-1212]
Activity [15]: 22%
Activity [1]: Dose-dependent effect
inhibition [16]: Active
Activity [17]: 14%
Activity [18]: 13%
inhibition [19]: Active
Activity [20]: 18%
fold change (FC) [21]: 1.6
fold change (FC) [22]: 4.8
Activity [23]: Active
pEC50 [24]: 8.00
Activity [25]: 41%
Activity [26]: Dose-dependent effect
Activity [27]: 10%
fold change (FC) [28]: 6.2
Activity [29]: 14%
Activity [30]: 32%
Activity [31]: 10%
Activity [32]: 13%
pEC50 [33]: 7.67
Activity [34]: Non-toxic
Activity [35]: 24%
Activity [36]: 12%
fold change (FC) [37]: 4.7
Activity [38]: 18%
Activity [39]: 11%
Activity [40]: 14%
pEC50 [41]: 3.61
Activity [42]: 16%
Activity [43]: 8%
Activity [44]: Active
pEC50 [45]: 4.28
Activity [46]: 9%
Activity [47]: Dose-dependent effect

Nc1ncn([C@@H]2O[C@H](CO)[C@@H](O)[C@H]2O)c(=O)n1 [AZACITIDINE]
pEC50 [24]: 4.28
